Consider three compounds from patent US20020107197A1, “Ligands for G protein coupled receptors and methods of using them” (priority 2000, published 2002).

In data set [1] the target is T1, GPR4 (Homo sapiens, UniProt P46093).
T1 construct: were used to generate full length GPR4, which was digested with EcoRI and Xba I and cloned into the pBs3HA vector; expressed in transfected cells
In words: DNA synthesis ([3H]thymidine incorporation) in GPR4-infected Swiss 3T3 cells. The class given is cell-based. The conditions noted are these: 3 μM, GPR4-infected Swiss 3T3 cells. How it is done: The effect of SPC and LPC on DNA synthesis was measured using [^3H] thymidine incorporation. Briefly, GPR4-ires-GFP- and GFP-Swiss 3T3 cells were plated in 96-well plates, serum-starved for 24 h, and treated with SPC, LPC, or other lipids in serum-free DMEM for 24 h. Cells were incubated with 0.75 μCi/ml [^3H]thymidine in serum-free DMEM for the last 18 h. Cells were harvested onto filter papers presoaked in 1% polyethylenimine using the automated cell harvester HARVEST 96. Incorporated [^3H]thymidine was counted in a 1450 Microbeta Trilux Liquid Scintillation and Luminescence Counter (Perkin-Elmer-Wallac, Inc.).

Another data set addresses T2, OGR1 (Homo sapiens, UniProt Q15743).
T2 construct: expressed in transfected cells
In words: SPC binding affinity for OGR1.

In the next data set the test system is cells. Particulars: cited from earlier work.
The test system of the next data set is TDAG8. Kind of data set: TDAG8 expression in Jurkat cells by real-time quantitative RT-PCR. Particulars: 0.1 and 1 μM LPC, up to 24 hours. It is filed as cell-based, human. As for the experimental part: (§1) Jurkat cells were treated with 0.1 and 1 μM LPC for various times (1, 2, 6, and 24 hours). At each time point, cells were collected and total RNA was extracted. Real-time quantitative PCR was utilized to determine relative amounts of GPR4 (shown in FIG. 1A and TDAG8 (shown in FIG. 1B) expressed under each condition. All PCR reactions were performed in triplicate.
(§2) In one scheme, total RNA is extracted from tissues using the RNeasy Total RNA System (Qiagen, Valencia, Calif.). One to five micrograms of total RNA are reverse transcribed using Superscript II RT (Gibco BRL, Rockville, Md.). Eight nanograms of derived cDNA are used as a template for real-time quantitative SYBR Green I PCR. Specific primers, that have already been established and used under these same conditions, are used for each individual receptor, with GAPDH being amplified in a separate tube as a housekeeping gene. The primers for GPR4 (Genbank accession number U2105 1) are 5′-[…]-3′ [SEQ ID NO. 1] and 5′-TCCAGTTGTCGTGGTGCAG-3′ [SEQ ID NO. 2] […] Amplified product is detected by measurement of SYBR Green I, which is added to the initial reaction mixture. […] The results are expressed as a fold-change in receptor expression levels compared to a baseline sample.
(§3) Jurkat cells were treated with 0.1 and 1 μM LPC for up to 24 hours followed by expression analysis of GPR4 and TDAG8 levels with real-time quantitative RT-PCR.

The test system of data set [2] is GPR4. In words: GPR4 expression in Jurkat cells by real-time quantitative RT-PCR. It is filed as cell-based, human. Particulars: 0.1 and 1 μM LPC, up to 24 hours. As for the experimental part: as §1, §2, §3

As usually defined, the Kd is the concentration at which binding is half-saturated. The low end stands for a tighter complex, the high end for a looser complex.

T1 sequence (P46093 whole entry): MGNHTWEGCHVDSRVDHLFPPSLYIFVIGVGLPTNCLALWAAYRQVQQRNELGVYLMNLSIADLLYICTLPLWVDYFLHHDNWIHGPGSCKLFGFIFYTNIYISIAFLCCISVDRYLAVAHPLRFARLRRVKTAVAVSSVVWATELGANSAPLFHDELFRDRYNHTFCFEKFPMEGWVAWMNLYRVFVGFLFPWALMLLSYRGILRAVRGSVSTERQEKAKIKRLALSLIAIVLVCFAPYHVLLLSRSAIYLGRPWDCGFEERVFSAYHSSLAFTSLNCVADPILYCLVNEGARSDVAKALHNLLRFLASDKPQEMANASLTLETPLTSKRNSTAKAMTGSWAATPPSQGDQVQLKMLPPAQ
T2 sequence (Q15743 whole entry, species assumed): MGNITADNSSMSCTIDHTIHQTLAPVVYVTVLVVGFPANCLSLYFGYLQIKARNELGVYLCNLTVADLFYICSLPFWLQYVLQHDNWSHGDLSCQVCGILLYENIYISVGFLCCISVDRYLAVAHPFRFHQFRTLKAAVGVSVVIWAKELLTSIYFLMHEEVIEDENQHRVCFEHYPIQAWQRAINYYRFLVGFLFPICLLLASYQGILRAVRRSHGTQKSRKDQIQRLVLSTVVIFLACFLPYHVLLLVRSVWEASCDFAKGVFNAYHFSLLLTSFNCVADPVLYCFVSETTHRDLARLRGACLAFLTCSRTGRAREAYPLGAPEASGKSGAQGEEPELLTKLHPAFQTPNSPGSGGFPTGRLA

In the case of `CCCCCCCCCCCCCCCC(=O)OC[C@@H](O)COP(=O)([O-])OCC[N+](C)(C)C` [16:0-LPC], the “increase of [3H]thymidine incorporation” value on GPR4 [1] is given as 1.6 fold. As to `CCCCCCCCCCCCC/C=C/[C@@H](O)[C@@H](N)COP(=O)([O-])OCC[N+](C)(C)C` [SPC, Sphingosylphosphorylcholine], binding at OGR1 was put at a Kd of 0.033 µM.

Consider lysophosphatidylcholine [LPC], for which, in the data set on cells, the “concentration at which cells are lysed” value is greater than 30 µM. Moreover, the “regulation of TDAG8 expression” value in the data set on TDAG8 was “time- and dose-dependent up regulation”. In addition, in the data set with GPR4 [2], the “regulation of GPR4 expression” value is “time- and dose-dependent up regulation”.
